Measured values taken from US20090232735A1, “USE OF FRUCTOSE-BASED THERAPIES FOR THE TREATMENT OF CANCER” (CEDARS-SINAI MEDICAL CENTER, priority 2005, published 2009).
Entries after “also recorded” stand apart in the source; their conditions may differ.

Test system: PANC-1 pancreatic cancer cells
Experiment: PANC-1 pancreatic cancer cell proliferation (MTS assay)
Format: cell-based, human
Settings: oxythiamine 0.5 mM, 72 h, MTS
Method: FIG. 13 depicts higher proliferation rates in pancreatic cancer cells in fructose (5.5 mM) than glucose (5.5 mM) containing medium in accordance with an embodiment of the present invention. PANC-1 cells were pre-incubated in 2 mM glucose, after which they were plated in 5.5 mM fructose or glucose for times between 12-72 h, after which proliferative rates were measured using an MTS assay. Proliferative rates are expressed as the percentage difference between cells grown in 5.5 mM fructose versus 5.5 mM glucose. p<0.01 for times>48 h.
FIG. 14 depicts proliferation rates of pancreatic cells in different fructose or glucose concentrations in accordance with an embodiment of the present invention. PANC-1 cells were plated in a range of fructose or glucose concentrations (5-25 mM) for 72 h, after which proliferative rates were measured using an MTS assay. *, p<0.05 for concentrations between 5-25 mM fructose versus glucose.
FIG. 17 depicts cell proliferation regardless of co-existent glucose concentration in accordance with an embodiment of the present invention. PANC-1 cells were pre-incubated in 2 mM glucose prior to treatment with a range of concentrations (0-15 mM) mixed with a range of fructose concentrations (0-15 mM) for 72 h. PANC-1 cell proliferative rates were then measured using the MTS assay (absorbance in arbitrary units).
FIG. 35 depicts inhibition of pancreatic cancer PANC-1 cell proliferation by incubation with the transketolase inhibitor, oxythiamine (0.5-2 mM) for 72 h in accordance with an embodiment of the present invention. Proliferative rates were measured using the MTS proliferation assay.
Standard media for maintenance cancer cell line culture, including pancreatic cancer cells such as PANC-1 cells contain either low—(5-7 mM), or high—(12-25 mM) glucose concentrations. Clearly, apart from the setting of hyperglycemia, as in patients with diabetes, the glucose concentrations in which pancreatic cancer cells are maintained in vitro are much higher than normal physiological conditions, which range between 2-5 mM glucose. […] Therefore, the inventors first pre-treated the pancreatic cancer cells overnight in standard DMEM medium containing low physiological glucose concentrations (2 mM glucose), and standard 10% fetal bovine serum. The pancreatic cancer cells were then incubated for times between 12, and 96 hours in standard DMEM medium containing 10% fetal bovine serum, and 5.5 mM glucose or 5.5 mM fructose. Proliferative rates were then measured in replicate (minimum of 6) aliquot wells of the pancreatic cancer cells, and the change (expressed as percent increase) in proliferative rates compared between cells grown in glucose, or fructose containing medium.
This first result intrigued the inventors, but given there is little documentation regarding physiological fructose concentrations, the inventors first considered that the “apparent” pro-proliferative effects of fructose were simply a consequence of the highly stylized in vitro experimental conditions, and that if the pancreatic cancer cells were cultured in higher glucose concentrations, this would result in similar proliferative rates to those the inventors observed following culture in 5.5 mM fructose. Therefore, in the next experiments, the inventors compared proliferative rates of the PANC-1 pancreatic cancer cells following culture for 72 h in a range of fructose, and glucose concentrations (2-25 mM). This timepoint was chosen as the inventors had seen maximal pancreatic cancer cell proliferation in 5.5 mM fructose at 72 h. […] While not wishing to be bound by any particular theory, the inventors believe that this latter finding may be because the PANC-1 cells are proliferating at close to maximal capacity by 72 h, once they are exposed to comparatively low fructose concentrations (5 mM). MTS assay was employed to measure pancreatic cancer cell proliferative rates, which utilizes mitochondrial oxidation to quantify cell proliferation. […]

Cc1ncc(C[n+]2csc(CCO)c2C)c(=O)[nH]1 [oxythiamine, reference compound]
fructose-mediated increase in pancreatic cancer cell proliferation (5.5 mM fructose): virtually abolished; also recorded: almost completely abrogate | glucose-induced and fructose-induced PANC-1 proliferation: inhibited
